Data on eleven molecules can be found in patent US20240034785A1, “RXR-ALPHA BINDERS AND RXR-ALPHA/PLK1 MODULATORS” (NUCMITO PHARMACEUTICALS CO. LTD., priority 2020, published 2024).

One assay concerns cancer cells. As to the kind of experiment: Mitotic progression of cancer cells (FACS analysis). It counts as cell-based. As for the experimental part: Cells were harvested by trypsin digestion, washed with PBS, and fixed with ice-cold 70% ethanol overnight at 4° C. The fixed cells were then washed twice in PBS and treated for 10 min at room temperature with 0.5 μg/mL 4-6-diamidino-2-phenylindole (DAPI) in PBS and analyzed on a FACSCAN™ flow cytometer. Flow cytometry data were analyzed using CYTEXPERT.

The next assay has as its system QSG-7701 cells. As to the kind of experiment: Western blot analysis of QSG-7701 normal liver cells. It is filed as cell-based, human. Particulars: 12 hr (FIG. 61).
In the next assay the test system is RXRα shift. As to the kind of experiment: Western blot of RXRα mobility shift (phosphorylation) in mitotic HeLa cells treated with inhibitors. It counts as cell-based, human. The following applies: for RXRα shift (mobility shift on SDS-PAGE, WB): mitotic HeLa cells released from TT block, inhibitors for 15 min (FIG. 16). As for the experimental part:
(§1) Cells were synchronized at GUS boundary by a double thymidine block. Briefly, cells cultured in a medium containing 2 mM thymidine for 16 hr were released into a normal medium for 8 hr, subjected to a second thymidine block for 16 hr, and then released into a fresh medium again. Alternatively, cells were synchronized at prometaphase by a thymidine-nocodazole arrest (an 18-hr thymidine arrest and a 5-hr release, followed by a 5-hr 100 ng/mL nocodazole arrest).

Assay [1] addresses T1, p-RXRα and PLK1 at the centrosome (Homo sapiens, UniProt P19793).
T1 construct: endogenous in cells; host or cells: HepG2
T1 sequence (P19793 1-462): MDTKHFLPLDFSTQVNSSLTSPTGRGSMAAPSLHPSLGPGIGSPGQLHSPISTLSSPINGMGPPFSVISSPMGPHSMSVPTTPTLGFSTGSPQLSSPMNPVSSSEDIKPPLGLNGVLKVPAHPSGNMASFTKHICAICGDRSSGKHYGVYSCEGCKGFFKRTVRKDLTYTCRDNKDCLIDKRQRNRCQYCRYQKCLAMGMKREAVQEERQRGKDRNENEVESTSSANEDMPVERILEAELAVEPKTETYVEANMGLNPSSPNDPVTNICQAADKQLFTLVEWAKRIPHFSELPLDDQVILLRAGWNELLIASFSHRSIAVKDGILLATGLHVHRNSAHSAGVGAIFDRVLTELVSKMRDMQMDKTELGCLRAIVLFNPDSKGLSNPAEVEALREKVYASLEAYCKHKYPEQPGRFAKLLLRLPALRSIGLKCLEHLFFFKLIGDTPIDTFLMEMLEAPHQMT
As to the kind of experiment: In situ proximity ligation assay (PLA) in HepG2 cells. It counts as cell-based. Particulars: RO-3306 10 μM for 30 min or compound A1 10 μM for 2 hr (FIG. 56). The method, then: An in situ proximity ligation assay (PLA) was performed in HeLa cells and HepG2 by using a DOULINK™ assay kit. Briefly, cells mounted on glass slides were fixed with methanol at −20° C. for 5 min, then permeabilized with 0.05% Triton X-100 in a PBS buffer for 8 min at 4° C., and blocked with a blocking solution for 60 min at 37° C., followed by incubation with primary antibodies for 60 min at 37° C. The slides were then washed three times with wash buffer A, and PLA labeled secondary antibodies (anti-mouse, minus; anti-rabbit, plus) were added and incubated for 60 min at 37° C. The slides were washed two times with wash buffer A and a ligation solution including a ligase was added for 30 min at 37° C. After ligation, the slides were washed two times with wash buffer A and followed by incubation with an amplification buffer including a polymerase for 100 min at 37° C. After amplification, the slides were washed two times with 1×wash buffer B and one time in 0.01×wash buffer B. Finally, the slides were mounted using a minimal volume of a mounting medium with DAPI and analyzed in a confocal microscope after 15 min.

The test system of another assay is PLK1 phosphorylation. As to the kind of experiment: Western blot of PLK1 activation/phosphorylation in mitotic cells. It counts as cell-based, human. The method, then: as §1
Assay [2] has as its system centrosomal localization of pS56-RXRα or RXRα. As to the kind of experiment: Immunostaining of centrosomal localization of pS56-RXRα or RXRα in metaphase HeLa cells. It counts as cell-based, human. The following applies: metaphase HeLa cells (FIG. 33). As for the experimental part:
Cells mounted on glass slides were fixed with methanol at −20° C. for 10 min, then permeabilized with 0.05% Triton X-100 in a PBS buffer for 8 min at 4° C., and blocked with 1% bovine serum in PBS for 30 min at room temperature, followed by incubation with primary antibodies at room temperature for 3 hr and detected by FITC-labeled anti-IgG (1:200), anti-goat IgG conjugated with Cy3 (1:200) at room temperature for 1 hr. The cells were costained with 40,6-diamidino-2-phenylindole (DAPI) (1:10,000 dilution) to visualize nuclei. The images were taken under a LEICA TCS SP8 confocal laser scanning microscope system or an LSM-510 confocal laser scanning microscope system.

The target of assay [3] is T2, polo-like kinase 1 (PLK1), full-length (human, UniProt P53350 1-603).
T2 construct: Endogenous, FLAG-tagged and His-tagged forms are merged here; also called FLAG-PLK1; Flag-PLK1
As to the kind of experiment: CoIP in HeLa cells (FIG. 5).

For assay [4], the target named is T2, polo-like kinase 1 (PLK1), full-length. As to the kind of experiment: CoIP in HeLa cells (FIG. 4).
Assay [5] has as its target T3, retinoic acid receptor-γ (RARγ) (UniProt P13631 1-454, limits assumed).
T3 construct: also called FLAG-RARγ
T3 sequence (looked up): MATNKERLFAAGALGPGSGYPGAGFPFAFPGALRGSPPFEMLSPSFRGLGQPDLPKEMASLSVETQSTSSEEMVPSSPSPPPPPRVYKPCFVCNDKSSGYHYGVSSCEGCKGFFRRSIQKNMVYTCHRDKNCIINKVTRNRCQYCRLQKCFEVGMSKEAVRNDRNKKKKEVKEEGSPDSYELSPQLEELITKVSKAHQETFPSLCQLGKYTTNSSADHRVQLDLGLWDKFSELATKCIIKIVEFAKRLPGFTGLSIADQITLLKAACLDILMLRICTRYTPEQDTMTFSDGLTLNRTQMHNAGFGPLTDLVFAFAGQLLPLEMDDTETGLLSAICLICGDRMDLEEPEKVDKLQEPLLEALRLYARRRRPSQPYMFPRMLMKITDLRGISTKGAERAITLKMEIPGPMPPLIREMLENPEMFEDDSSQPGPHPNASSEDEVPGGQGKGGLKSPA
As to the kind of experiment: co-immunoprecipitation from HeLa cells (IP: FLAG, WB: Myc).

Assay [6] deals with T2, polo-like kinase 1 (PLK1), full-length. As to the kind of experiment: CoIP in HeLa cells (FIG. 3).
The target in assay [7] is T3, retinoic acid receptor-γ (RARγ). As to the kind of experiment: CoIP in HeLa cells (FIG. 3).

In the case of `CC[C@@H]1C(=O)N(C)c2cnc(Nc3ccc(C(=O)NC4CCN(C)CC4)cc3OC)nc2N1C1CCCC1` [BI2536], in the assay on cancer cells, the inducing mitosis arrest entry is “inducing mitosis arrest” and the “mitotic progression of cancer cells” value is given as “inhibited mitotic progression of cancer cells”. In addition, in the assay on QSG-7701 cells, the “effect in p-RXRα-negative noncancerous QSG-7701 cells” value is recorded as “active even in QSG-7701 cells”. In addition, in the assay on RXRα shift, the “RXRα shift (mobility shift on SDS-PAGE, WB)” value (shortened to “RXRα shift”) is on record as “did not inhibit”. As to `O=C1NC(=NCc2cccs2)S/C1=C\c1ccc2ncccc2c1` [RO-3306], the “level of p-RXRα detected by the anti-pS56-RXRα antibody” value with RXRα shift (mitotic HeLa cells) is recorded as “reduced”. Besides, in the assay with RXRα shift, the “RXRα shift” value is given as “strongly inhibited RXRα shift in a dose dependent manner”. For the same molecule, the “in situ interaction between p-RXRα and PLK1 at the centrosome (PLA)” value in assay [1] was “inhibited the in situ interaction”. Further, in the assay on PLK1 phosphorylation, the “PLK1 activation / PLK1 phosphorylation” value is on record as “reduced PLK1 phosphorylation in a dose dependent manner”. For the same molecule, in assay [2], the “centrosomal RXRα staining by the regular anti-RXRα antibody” value is recorded as “inhibited centrosomal RXRα staining” and the “centrosomal staining by the anti-pS56-RXRα antibody” value was “eliminated centrosomal staining by the antibody”. As to `Oc1c2ccccc2c2c3c(cccc13)N=N2` [SP600125], in the assay with RXRα shift, the “RXRα shift” value is on record as “no effect”. Regarding `Cc1cc(Nc2cc(N3CCN(C)CC3)nc(Sc3ccc(NC(=O)C4CC4)cc3)n2)n[nH]1` [VX680], in the assay on PLK1 phosphorylation, the “PLK1 activation / PLK1 phosphorylation” value is “attenuated”. On to `CN1CC[C@H](c2c(O)cc(O)c3c(=O)cc(-c4ccccc4Cl)oc23)[C@H](O)C1` [flavopiridol], for which, in the assay on RXRα shift, the “RXRα shift” value was “strongly inhibited RXRα shift in a dose dependent manner”. As to `CC(=O)c1c(C)c2cnc(Nc3ccc(N4CCNCC4)cn3)nc2n(C2CCCC2)c1=O` [palbociclib], the “RXRα shift” value in the assay on RXRα shift is listed as “no effect”. For the molecule `CC1=CC(=O)C(C(C)C)=C/C1=N/OC(=O)c1ccccc1C` [poloxin], the “mitotic progression of cancer cells” value in the assay on cancer cells is on record as “inhibited mitotic progression of cancer cells”.

B1: RXRα mutant lacking the N-terminal A/B domain (receptor)
chain: CAICGDRSSGKHYGVYSCEGCKGFFKRTVRKDLTYTCRDNKDCLIDKRQRNRCQYCRYQKCLAMGMKREAVQEERQRGKDRNENEVESTSSANEDMPVERILEAELAVEPKTETYVEANMGLNPSSPNDPVTNICQAADKQLFTLVEWAKRIPHFSELPLDDQVILLRAGWNELLIASFSHRSIAVKDGILLATGLHVHRNSAHSAGVGAIFDRVLTELVSKMRDMQMDKTELGCLRAIVLFNPDSKGLSNPAEVEALREKVYASLEAYCKHKYPEQPGRFAKLLLRLPALRSIGLKCLEHLFFFKLIGDTPIDTFLMEMLEAPHQMT
notes: also called RXRα-AA/B (so in the source)
For the molecule B1, the binding result in assay [3] was “no binding”.

B2: RXRα-LBD (ligand-binding domain of RXRα) (receptor)
chain: TSSANEDMPVERILEAELAVEPKTETYVEANMGLNPSSPNDPVTNICQAADKQLFTLVEWAKRIPHFSELPLDDQVILLRAGWNELLIASFSHRSIAVKDGILLATGLHVHRNSAHSAGVGAIFDRVLTELVSKMRDMQMDKTELGCLRAIVLFNPDSKGLSNPAEVEALREKVYASLEAYCKHKYPEQPGRFAKLLLRLPALRSIGLKCLEHLFFFKLIGDTPIDTFLMEMLEAPHQMT
notes: also called LBD of RXRα
B2: the binding result in assay [4] is “no binding”.

B3: RXRα-1-235, regular form (receptor)
chain: MDTKHFLPLDFSTQVNSSLTSPTGRGSMAAPSLHPSLGPGIGSPGQLHSPISTLSSPINGMGPPFSVISSPMGPHSMSVPTTPTLGFSTGSPQLSSPMNPVSSSEDIKPPLGLNGVLKVPAHPSGNMASFTKHICAICGDRSSGKHYGVYSCEGCKGFFKRTVRKDLTYTCRDNKDCLIDKRQRNRCQYCRYQKCLAMGMKREAVQEERQRGKDRNENEVESTSSANEDMPVERI
Consider B3, for which the binding result in assay [5] is “no binding”.

B4: RXRα-1-235, modified form with mobility shift (receptor)
chain: B3 chain
modifications: phosphorylated (mobility-shifted); sites not stated for this construct
notes: A/B domain plus DBD
Consider B4, for which the binding result in assay [6] is recorded as “binds”; in [7], “no binding”.
